In paper PMC8698070, “The Zoonotic Helminth Parasite Fasciola hepatica: Virulence-Associated Cathepsin B and Cathepsin L Cysteine Peptidases Secreted by Infective Newly Excysted Juveniles (NEJ)” (Animals : an Open Access Journal from MDPI, 2021):
“And” between values parts separate entries of the source, which are not always exact repeats. Identical values can stand only once. “Also recorded” adds a separate entry of the source. Like-named read-outs stand apart in the source and are kept apart here. Where a SMILES comes first, the peptide text is derived from it. The star is where a group is joined. Cbz = O=C(OCc1ccccc1)*

Legend:
FhCB1 = FhCB1 (Fasciola hepatica, UniProt Q8I7B2); test: Inhibition of recombinant FhCB1, fluorogenic substrate assay (Z-Phe-Arg-AMC); type: biochemical; details: for Ki: read-out: inhibition constant Ki; for inhibition of enzymatic activity (inhibitor screen, Figure 5), in words: FhCB1, inhibitor 1000-15 nM
Chain of FhCB1 (Q8I7B2 entry or part of it): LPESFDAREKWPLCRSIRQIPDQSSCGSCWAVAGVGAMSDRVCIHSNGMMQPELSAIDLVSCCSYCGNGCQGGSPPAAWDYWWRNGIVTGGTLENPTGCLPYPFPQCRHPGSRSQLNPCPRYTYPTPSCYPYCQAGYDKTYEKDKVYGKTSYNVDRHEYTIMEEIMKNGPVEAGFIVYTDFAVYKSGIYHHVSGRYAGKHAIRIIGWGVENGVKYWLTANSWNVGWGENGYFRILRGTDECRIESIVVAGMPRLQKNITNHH
Description: (§1) Recombinant peptidases were assayed for enzymatic activity using a fluorogenic substrate assay. The reactions were carried out in 0.1 M C-P buffer (pH 7.0) with 1 mM DTT in a final volume of 200 μL, in a black 96-well plate. Each well contained activated enzyme (140 nM) and 20 μM fluorogenic substrate, which was added to start the reaction. All assays were run in triplicate at 37 °C for 1 h. Enzyme activity was monitored by rate of hydrolysis and subsequent release of the AMC group on the synthetic peptide substrates at an excitation wavelength of 370 nm and an emission wavelength of 460 nm, as relative fluorescence units (RFU), in a PolarStar Omega Spectrophotometer (BMG Labtech, Aylesbury, UK). All data were plotted and analysed using MARS Data Analysis Software (BMG Labtech, UK) and GraphPad Prism version 5.
(§2) Commercially available inhibitors of cathepsin B (Ca074 and Ca074-OMe), cathepsin L (L, L1, LII, LIII and LIV), cathepsin K (KI, KII and KIII) and cathepsin S were purchased from Merck Millipore (Cork, Ireland; Supplementary Figure S2). The broad-spectrum papain peptidase inhibitor Z-Phe-Ala-FMK was purchased from Enzo Life Sciences (Exeter, UK). These were used to determine and compare the inhibition constant (Ki) against the recombinant FhCBs and FhCL3. All the assays were carried out in 0.1 M C-P buffer with 1 mM DTT and 0.01% Brij® L23, at the pH corresponding to the optimum for each enzyme in a total 200 µL reaction volume. The peptidases (140 nM) were pre-incubated with the inhibitor (1000-15 nM) at room temperature, for 30 min, before starting the reaction by the addition of the substrate that was optimal for each enzyme (FhCB1, Z-Phe-Arg-AMC; FhCB2 and FhCB3, Z-Val-Ile-Arg-AMC; FhCL3, Z-Gly-Pro-Arg-AMC). Substrate concentrations were equal to KM (shown in Table 1) and the apparent inhibition constant (Ki^app) values were calculated with GraphPad Prism 5, using the Morrison equation for tight binding inhibition (Equation (3)). For competitive inhibitors, such as those used in this study, Ki^app was fitted to a second equation (Equation (4)) from which Ki can be determined. (3) vi/vo=1−([E])+[I]+Kiapp)−([E]+[I]+Kiapp)^2−4[E][I] /2[E] (4) Kiapp=Ki(1+[S]/KM)

FhCB3 = FhCB3 (Fasciola hepatica, UniProt A7UNB2); test: Inhibition of recombinant FhCB3, fluorogenic substrate assay (Z-Val-Ile-Arg-AMC); type: biochemical; details: for inhibition of enzymatic activity (inhibitor screen, Figure 5), in words: FhCB3, inhibitor 1000-15 nM
Chain of FhCB3 (A7UNB2 entry or part of it): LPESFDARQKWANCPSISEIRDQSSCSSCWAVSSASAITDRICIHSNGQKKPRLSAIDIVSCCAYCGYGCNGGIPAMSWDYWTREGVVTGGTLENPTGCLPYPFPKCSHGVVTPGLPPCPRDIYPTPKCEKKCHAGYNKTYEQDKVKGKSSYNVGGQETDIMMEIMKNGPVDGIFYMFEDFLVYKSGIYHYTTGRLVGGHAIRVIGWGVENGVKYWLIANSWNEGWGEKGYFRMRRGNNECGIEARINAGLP
Description: as §1, §2

FhCL3 = FhCL3 (Fasciola hepatica, UniProt A0A879R2T5); test: Inhibition of recombinant FhCL3, fluorogenic substrate assay (Z-Gly-Pro-Arg-AMC); type: biochemical; details: for inhibition of enzymatic activity (inhibitor screen, Figure 5), in words: FhCL3, inhibitor 1000-15 nM
Chain of FhCL3 (A0A879R2T5 entry or part of it): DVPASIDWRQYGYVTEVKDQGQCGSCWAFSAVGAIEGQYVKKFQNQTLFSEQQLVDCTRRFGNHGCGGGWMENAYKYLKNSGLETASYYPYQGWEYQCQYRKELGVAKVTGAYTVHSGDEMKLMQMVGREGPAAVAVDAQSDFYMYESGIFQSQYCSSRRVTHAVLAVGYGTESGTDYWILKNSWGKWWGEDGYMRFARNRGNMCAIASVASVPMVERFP
Description: as §1, §2

F. hepatica NEJ = test: Viability of NEJ in culture; type: cell-based, Fasciola hepatica; details: 100 μM inhibitor, 24 h culture, compared to the DMSO group
Description: NEJ were washed three times in a culturing medium (RPMI-1640 medium supplemented with 30 mM HEPES, 0.1% glucose, 10% foetal bovine serum and 50 μg/mL of gentamicin) and their viability assessed by culturing the parasites in 1 mL of culture medium containing 100 μM of the inhibitor at 5% CO2 at 37 °C for 24 h. After incubation, the number of moribund/dead parasites were counted using a light microscope (25× magnification). The criteria used to assess the NEJ viability were loss of motility and peristaltic movement and any obvious damage to the tegument or internal structures, as previously standardized by. The experiments were performed in triplicate. The average of the replicate experimental data was subjected to a two-way ANOVA comparing the values obtained with each inhibitor against the mean of the DMSO control group, with minimum 95% confidence intervals. All the statistical analyses were performed using GraphPad Prism 5.

human cathepsins S = target: human cathepsins S; parameters: method as in PMID 10964677; details: human cathepsin S; cited from earlier work
human cathepsins B = target: human cathepsins B; parameters: method as in PMID 10964677; details: human cathepsin B; cited from earlier work
FhCB2 = FhCB2 (Fasciola hepatica, UniProt A5X493); test: Inhibition of recombinant FhCB2, fluorogenic substrate assay (Z-Val-Ile-Arg-AMC); type: biochemical; details: for inhibition of enzymatic activity (inhibitor screen, Figure 5), in words: FhCB2, inhibitor 1000-15 nM; for Ki: read-out: inhibition constant Ki
Chain of FhCB2 (A5X493 entry or part of it): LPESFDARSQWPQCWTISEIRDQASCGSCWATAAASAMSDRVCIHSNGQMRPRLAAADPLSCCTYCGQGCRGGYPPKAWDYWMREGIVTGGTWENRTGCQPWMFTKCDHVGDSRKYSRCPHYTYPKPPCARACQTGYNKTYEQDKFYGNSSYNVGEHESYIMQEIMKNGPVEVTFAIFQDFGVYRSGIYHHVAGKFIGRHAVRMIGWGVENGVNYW
Description: as §1, §2

human cathepsin B (HsCB) = target: T1, human cathepsin B (HsCB) (Homo sapiens, UniProt P07858); test: Inhibitor screen against human cathepsin B control; type: biochemical
T1 construct: purchased Sigma-Aldrich; host or cells: human embryonic kidney cells
Text: (§3) The Schistosoma mansoni cathepsin B1 (SmCB1) was also produced in our laboratory using P. pastoris as described above. The human cathepsin B (HsCB) and cathepsin L1 (HsCL1) were produced in human embryonic kidney cells (Sigma-Aldrich).
as §2, with “All the assays were carried out in 0.1 M C-P buffer with 1 mM DTT and 0.01% Brij® L23, at the pH corresponding to the optimum for each enzyme in a total 200 µL reaction volume. The peptidases (140 nM) were pre-incubated with the inhibitor (1000-15 nM) at room temperature, for 30 min, before starting the reaction by the addition of the substrate that was optimal for each enzyme (FhCB1, Z-Phe-Arg-AMC; FhCB2 and FhCB3, Z-Val-Ile-Arg-AMC; FhCL3, Z-Gly-Pro-Arg-AMC).” left out
The broad-range cysteine peptidase inhibitor Z-Phe-Ala-FMK was also included (Figure 5).
Figure 5 Profile of inhibition of FhCB1, FhCB2, FhCB3 and FhCL3. Commercially available inhibitors of cathepsin B (Ca074 and Ca07a-OMe), cathepsin L (L, L1, LII, LIII and LIV), cathepsin K (KI, KII and KIII), cathepsin S and the broad-spectrum papain peptidase inhibitor Z-Phe-Ala-FMK (A–L) were used to determine and compare the inhibition constant against recombinants FhCB1, FhCB2, FhCB3, FhCL3, HsCB and HsCL1. […] Error bars indicate standard deviation of three replicates.

cathepsin L1 (HsCL1) = target: T2, cathepsin L1 (HsCL1) (Homo sapiens, UniProt P07711); test: Inhibitor screen against human cathepsin L1 control; type: biochemical
T2 construct: purchased Sigma-Aldrich; host or cells: human embryonic kidney cells
T2 sequence (P07711 114-333): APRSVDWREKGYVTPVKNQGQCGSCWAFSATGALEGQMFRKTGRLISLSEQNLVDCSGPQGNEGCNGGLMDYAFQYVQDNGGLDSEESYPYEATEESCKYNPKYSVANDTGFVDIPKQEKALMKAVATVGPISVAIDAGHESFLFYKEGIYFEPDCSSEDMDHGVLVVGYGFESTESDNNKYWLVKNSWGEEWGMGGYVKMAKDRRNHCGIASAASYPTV
Text: as §3, §2
A panel of 12 commercially available cysteine peptidase inhibitors that preferentially target mammalian cathepsin B (Ca074 and Ca074-OMe), cathepsin L (L, L1, LII, LIII and LIV) cathepsin S (S) and cathepsin K (KI, KII and KIII) were screened against the FhCBs, FhCL3 and, as controls, HsCB and HsCL1. The broad-range cysteine peptidase inhibitor Z-Phe-Ala-FMK was also included (Figure 5).
Figure 5 Profile of inhibition of FhCB1, FhCB2, FhCB3 and FhCL3. Commercially available inhibitors of cathepsin B (Ca074 and Ca07a-OMe), cathepsin L (L, L1, LII, LIII and LIV), cathepsin K (KI, KII and KIII), cathepsin S and the broad-spectrum papain peptidase inhibitor Z-Phe-Ala-FMK (A–L) were used to determine and compare the inhibition constant against recombinants FhCB1, FhCB2, FhCB3, FhCL3, HsCB and HsCL1. Activity is represented as the percentage of enzymatic activity observed by hydrolysis of a fluorogenic quenched peptide substrate following a pre-incubation with inhibitor in relation to the activity of the enzyme alone. Error bars indicate standard deviation of three replicates.

[1] = system: F. hepatica metacercariae; test: Excystment of F. hepatica metacercariae in vitro; type: cell-based, Fasciola hepatica; details: 100 μM inhibitor, 3 h, 37 °C, 50 metacercariae per well; vs DMSO control
Description: F. hepatica metacercariae (Italian isolate; Ridgeway Research, Saint Briavels, UK) were prepared for excystment as previously described by Robinson et al.. To verify the effect of the cathepsin peptidase inhibitors on the ability of the metacercariae to excyst, 50 metacercariae per well were placed into a 24-well plate and 1 mL of excystment medium (0.6% sodium bicarbonate, 0.45% sodium chloride, 0.4% sodium tauroglycocholate, 0.025 N HCl and 0.4% L-cysteine) supplemented with 100 μM of the inhibitor was added to the well. As controls, we used PBS and dimethylsulfoxide (DMSO, 1:100; Sigma-Aldrich) alone. The plate was then incubated at 37 °C with 5% CO2, for 3 h to allow metacercarial excystment. Using a light microscope (25× magnification), the number of excysted NEJ was determined.

[2] = system: F. hepatica metacercariae; parameters: method as in PMID 19443417; details: final concentration of 1 mM; cited from earlier work
[3] = recombinant FhCB1 140 nM, 30 min pre-incubation, substrate Z-Phe-Arg-AMC at KM, optimum pH, ± SEM
[4] = inhibition constant Ki, recombinant FhCL3 140 nM, 30 min pre-incubation, substrate Z-Gly-Pro-Arg-AMC at KM, optimum pH, ± SEM
[5] = recombinant FhCB2 140 nM, 30 min pre-incubation, substrate Z-Val-Ile-Arg-AMC at KM, optimum pH, ± SEM
[6] = recombinant FhCB3 140 nM, 30 min pre-incubation, substrate Z-Val-Ile-Arg-AMC at KM, optimum pH, ± SEM, read-out: inhibition constant Ki
[7] = recombinant FhCL3 140 nM, 30 min pre-incubation, substrate Z-Gly-Pro-Arg-AMC at KM, optimum pH, ± SEM, read-out: inhibition constant Ki

Structure (SMILES)	Ki (FhCB1; [3])	Ki (FhCB3)	Ki (FhCL3; [4])	inhibition of enzymatic activity (inhibitor screen, Figure 5), in words (FhCB1)	inhibition of enzymatic activity (inhibitor screen, Figure 5), in words (FhCB2)	Ki (FhCB2; [5])	inhibition of enzymatic activity (inhibitor screen, Figure 5), in words (FhCB3)	Ki (FhCB3; [6])	inhibition of enzymatic activity (inhibitor screen, Figure 5), in words (FhCL3)	Ki (FhCL3; [7])	inhibition of enzymatic activity (inhibitor screen, Figure 5), in words (human cathepsin B (HsCB))	also measured
CC(C)C[C@H](NC(=O)[C@H](Cc1ccccc1)NC(=O)OCc1ccccc1)C(=O)C=O [S]	14 ± 2.42 nM	696 ± 94.8 nM	35 ± 2.4 nM									reduction of NEJ viability (survival) (F. hepatica NEJ): ~ 55%; Ki (human cathepsins S): 0.185 nM; Ki (human cathepsins B): 76 nM
O=CC(Cc1ccc(O)cc1)NC(=O)C(Cc1ccccc1)NC(=O)OCc1ccccc1 (stereo not drawn) [LII] (Cbz-Phe-Tyr-aldehyde; configuration not given here)				most effective at reducing the enzymatic activity	most effective at reducing the enzymatic activity	1840 ± 77 nM	most effective at reducing the enzymatic activity	211 ± 34.8 nM	most effective at reducing the enzymatic activity	8 ± 0.6 nM	inhibited	inhibition of enzymatic activity (inhibitor screen, Figure 5), in words (cathepsin L1 (HsCL1)): specificity for HsCL1 over HsCBs; also recorded: inhibited
CCCNC(=O)[C@H]1O[C@@H]1C(=O)N[C@H](C(=O)N1CCC[C@H]1C(=O)O)[C@@H](C)CC [Ca074]	7320 ± 934 nM			poor inhibitors; also recorded: very poor inhibitors	poor inhibitors; also recorded: very poor inhibitors	5930 ± 567 nM	poor inhibitors; also recorded: very poor inhibitors	540 ± 45.2 nM	poor inhibitors	603 ± 133 nM	selective for HsCB compared to HsCL1	inhibition constant Ki (FhCB1; [3]): poor inhibition; inhibition constant Ki (FhCB2; [5]): poor inhibition; inhibition constant Ki (FhCB3; recombinant FhCB3 140 nM, 30 min pre-incubation, substrate Z-Val-Ile-Arg-AMC at KM, optimum pH, ± SEM): poor inhibition; inhibition constant Ki (FhCL3; recombinant FhCL3 140 nM, 30 min pre-incubation, substrate Z-Gly-Pro-Arg-AMC at KM, optimum pH, ± SEM): poor inhibition
C[C@H](NC(=O)[C@H](Cc1ccccc1)NC(=O)OCc1ccccc1)C(=O)CF [Z-Phe-Ala-FMK]	< 15 nM and 3 nM	246 ± 55.7 nM	15 ± 5.95 nM									reduction of metacercariae excystment [1]: more than 50%; effect on metacercariae excystment [2]: completely prevented
